Laboratory results from ChEMBL document CHEMBL1129127, “Potent and selective PKC inhibitory 5-membered ring analogs of balanol with replacement of the carboxamide moiety” (Bioorg Med Chem Lett, 1996).

Legend:
[1] = biological target: T1, Protein kinase C beta type (Homo sapiens, UniProt P05771); assay: Inhibition of protein kinase C beta II
[2] = biological target: T2, Protein kinase C epsilon type (Homo sapiens, UniProt Q02156); assay: Inhibition of protein kinase C epsilon
T2 sequence (Q02156 whole entry): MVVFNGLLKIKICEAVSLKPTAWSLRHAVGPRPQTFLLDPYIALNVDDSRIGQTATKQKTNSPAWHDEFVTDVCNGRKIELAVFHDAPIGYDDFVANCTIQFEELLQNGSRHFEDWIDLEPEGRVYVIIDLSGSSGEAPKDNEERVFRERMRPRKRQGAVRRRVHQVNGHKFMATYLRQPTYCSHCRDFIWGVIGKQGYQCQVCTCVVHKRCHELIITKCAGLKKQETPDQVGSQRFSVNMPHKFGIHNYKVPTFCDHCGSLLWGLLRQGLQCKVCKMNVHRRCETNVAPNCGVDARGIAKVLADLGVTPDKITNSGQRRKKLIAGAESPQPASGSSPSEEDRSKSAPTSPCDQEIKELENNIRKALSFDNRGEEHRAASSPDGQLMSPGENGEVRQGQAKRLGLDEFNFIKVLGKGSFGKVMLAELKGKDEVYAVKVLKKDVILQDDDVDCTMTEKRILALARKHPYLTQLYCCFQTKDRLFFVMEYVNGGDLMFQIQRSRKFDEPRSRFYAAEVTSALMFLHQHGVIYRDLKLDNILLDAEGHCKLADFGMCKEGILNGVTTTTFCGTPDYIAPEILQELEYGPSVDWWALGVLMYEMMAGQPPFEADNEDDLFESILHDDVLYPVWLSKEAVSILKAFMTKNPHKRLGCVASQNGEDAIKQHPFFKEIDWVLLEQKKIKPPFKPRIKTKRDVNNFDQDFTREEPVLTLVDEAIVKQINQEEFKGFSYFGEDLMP

[3] = biological target: Protein kinase C gamma type (Homo sapiens, UniProt P05129); assay: Inhibition of protein kinase C gamma
Homo sapiens = species: Homo sapiens; assay: Inhibition of cellular activity by neutrophil assay; assay type: functional
[4] = Inhibition of protein kinase A.
[5] = biological target: Protein kinase C alpha type (Homo sapiens, UniProt P17252); assay: Inhibition of protein kinase C alpha
[6] = biological target: Protein kinase C eta type (Homo sapiens, UniProt P24723); assay: Inhibition of protein kinase C eta
Chain of Protein kinase C eta type (P24723 whole entry): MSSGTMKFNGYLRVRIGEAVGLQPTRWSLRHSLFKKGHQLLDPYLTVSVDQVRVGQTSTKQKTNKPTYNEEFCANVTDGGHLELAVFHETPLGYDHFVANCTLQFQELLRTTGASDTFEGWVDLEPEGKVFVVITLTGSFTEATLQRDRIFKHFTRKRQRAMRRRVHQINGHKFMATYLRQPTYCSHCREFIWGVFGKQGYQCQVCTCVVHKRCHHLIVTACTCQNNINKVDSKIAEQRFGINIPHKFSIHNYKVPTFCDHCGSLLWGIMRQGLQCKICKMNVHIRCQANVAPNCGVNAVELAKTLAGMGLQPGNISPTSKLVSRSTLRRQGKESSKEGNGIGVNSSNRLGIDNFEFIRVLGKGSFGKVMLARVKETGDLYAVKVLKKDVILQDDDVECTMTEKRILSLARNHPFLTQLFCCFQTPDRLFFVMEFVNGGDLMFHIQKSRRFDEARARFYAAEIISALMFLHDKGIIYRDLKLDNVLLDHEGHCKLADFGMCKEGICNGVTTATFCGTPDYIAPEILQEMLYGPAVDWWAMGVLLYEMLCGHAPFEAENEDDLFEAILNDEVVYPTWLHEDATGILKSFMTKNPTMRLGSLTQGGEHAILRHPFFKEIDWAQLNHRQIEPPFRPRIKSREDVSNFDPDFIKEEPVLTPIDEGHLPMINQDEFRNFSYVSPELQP

[7] = biological target: T1, Protein kinase C beta type; assay: Inhibition of protein kinase C beta I
[8] = biological target: Protein kinase C delta type (Homo sapiens, UniProt Q05655); assay: Inhibition of protein kinase C delta
Chain of Protein kinase C delta type (Q05655 whole entry): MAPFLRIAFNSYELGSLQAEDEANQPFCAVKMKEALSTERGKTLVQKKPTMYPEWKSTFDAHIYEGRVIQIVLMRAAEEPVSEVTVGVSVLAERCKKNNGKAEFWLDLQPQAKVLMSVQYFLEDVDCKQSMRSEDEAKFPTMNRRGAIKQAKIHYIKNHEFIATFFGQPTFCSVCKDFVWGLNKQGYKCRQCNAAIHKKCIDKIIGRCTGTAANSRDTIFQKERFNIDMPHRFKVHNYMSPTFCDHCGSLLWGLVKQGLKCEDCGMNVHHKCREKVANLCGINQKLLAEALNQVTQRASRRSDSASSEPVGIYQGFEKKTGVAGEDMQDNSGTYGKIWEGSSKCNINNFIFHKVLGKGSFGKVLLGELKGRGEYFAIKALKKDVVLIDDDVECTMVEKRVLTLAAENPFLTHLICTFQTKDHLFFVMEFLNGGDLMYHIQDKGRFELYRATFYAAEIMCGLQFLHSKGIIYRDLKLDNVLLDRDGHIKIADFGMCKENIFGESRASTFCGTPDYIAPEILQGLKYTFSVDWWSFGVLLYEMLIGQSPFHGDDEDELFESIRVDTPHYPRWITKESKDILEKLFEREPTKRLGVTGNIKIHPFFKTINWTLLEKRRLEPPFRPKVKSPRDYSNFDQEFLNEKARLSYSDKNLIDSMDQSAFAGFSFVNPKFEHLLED

T1 sequence (P05771 whole entry): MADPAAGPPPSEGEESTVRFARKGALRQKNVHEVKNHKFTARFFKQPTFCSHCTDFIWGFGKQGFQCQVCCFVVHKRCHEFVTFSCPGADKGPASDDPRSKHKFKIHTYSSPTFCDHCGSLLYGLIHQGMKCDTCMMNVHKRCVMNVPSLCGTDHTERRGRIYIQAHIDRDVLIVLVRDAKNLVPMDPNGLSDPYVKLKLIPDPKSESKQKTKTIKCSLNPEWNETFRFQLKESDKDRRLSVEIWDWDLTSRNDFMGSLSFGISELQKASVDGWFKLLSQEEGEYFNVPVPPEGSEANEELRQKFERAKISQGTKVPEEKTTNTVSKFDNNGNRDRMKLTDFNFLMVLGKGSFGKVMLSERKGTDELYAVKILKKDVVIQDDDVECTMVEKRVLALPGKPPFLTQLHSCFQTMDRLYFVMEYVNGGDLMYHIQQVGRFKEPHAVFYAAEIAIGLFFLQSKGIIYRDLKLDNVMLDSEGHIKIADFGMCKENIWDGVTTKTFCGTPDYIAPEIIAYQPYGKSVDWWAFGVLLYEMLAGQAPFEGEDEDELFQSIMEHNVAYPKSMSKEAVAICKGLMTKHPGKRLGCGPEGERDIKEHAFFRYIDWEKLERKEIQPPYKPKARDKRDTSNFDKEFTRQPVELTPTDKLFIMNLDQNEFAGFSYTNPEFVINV

SMILES | IC50 [3] [nM] | IC50 (Homo sapiens; Homo sapiens) [nM] | IC50 [4] [nM] | IC50 [6] [nM] | IC50 [8] [nM] | also measured
O=C(NC1CNCC1OC(=O)c1cc(O)c(C(=O)c2c(O)cccc2C(=O)O)c(O)c1)c1ccc(O)cc1 (stereo not drawn) | 12 | > 10000 | 70 | 4 | 5 | IC50 [1]: 33 nM; IC50 [2]: 10 nM; IC50 [5]: 22 nM; IC50 [7]: 10 nM
O=C(OC1CNCC1Cc1ccc(O)cc1)c1cc(O)c(C(=O)c2c(O)cccc2C(=O)O)c(O)c1 (stereo not drawn) | 40 | > 10000 | 320 | 20 | 5 | IC50 [2]: 1800 nM
COC(=O)c1cccc(O)c1C(=O)c1c(O)cc(C(=O)OC2CNCC2Cc2ccc(O)cc2)cc1O (stereo not drawn) | – | – | – | 50 | – | –
O=C(NC1CCCC1OC(=O)c1cc(O)c(C(=O)c2c(O)cccc2C(=O)O)c(O)c1)c1ccc(O)cc1 (stereo not drawn) | – | > 10000 | – | 1 | 1 | –
COC(=O)c1cccc(O)c1C(=O)c1c(O)cc(C(=O)OC2CCCC2Cc2ccc(O)cc2)cc1O (stereo not drawn) | – | – | > 50000 | – | – | –
O=C(OC1CCCC1Oc1ccc(O)cc1)c1cc(O)c(C(=O)c2c(O)cccc2C(=O)O)c(O)c1 (stereo not drawn) | – | – | 50000 | – | – | –
O=C(NC1CNCCCC1OC(=O)c1cc(O)c(C(=O)c2c(O)cccc2C(=O)O)c(O)c1)c1ccc(O)cc1 (racemic) | – | > 10000 | 60 | – | – | –
O=C(NC1CNCCCC1OC(=O)c1cc(O)c(C(=O)c2c(O)cccc2C(=O)O)c(O)c1)c1ccc(O)cc1 (single isomer, unassigned; (-)) | 10 | – | 40 | 3 | 16 | IC50 [1]: 10 nM; IC50 [5]: 30 nM; IC50 [7]: 10 nM
O=C(OC1CCCC1Cc1ccc(O)cc1)c1cc(O)c(C(=O)c2c(O)cccc2C(=O)O)c(O)c1 (stereo in doubt; anti) | – | – | > 50000 | – | – | IC50 (Homo sapiens): 3100 nM
O=C(OC1CCCC1Cc1ccc(O)cc1)c1cc(O)c(C(=O)c2c(O)cccc2C(=O)O)c(O)c1 (stereo in doubt; syn) | – | – | – | – | – | IC50 (Homo sapiens): 10000 nM
